# Measured values as given in patent US20200276107A1, “Treatment of herpes simplex symptoms on skin and mucous membrane of mammals” (priority 2017, published 2020).
# Test system: herpes simplex labialis
# Assay: In vivo topical treatment, test group A (four individuals)
# Parameters: species or system human
# Settings: common topical medication 5 to 6 times per day
# Experimental: Antiviral performance of the composition of the present invention was evaluated in vivo. The test group A consisted of four individuals suffering from herpes simplex labialis. […] As infections were untreated, the individuals were normally healing in between 7 to 10 days. The time from initiation of the symptoms to when the patients experienced relief of pain from the affected area was between 5 to 7 days. […] The time from initiation of the symptoms to time when the patients experienced relief of pain from the affected area was 3 to 5 days.
# The herpes infections of test group were treated topically with a composition containing the polyamine polymer silver complex of the present invention with the following results. The composition was applied topically to the affected areas to cover the cold sores with a coating of the composition two times a day. The time from initiation of the cold sores and treatment with the composition to complete healing averaged between about 2 to 3 days. The time from the initiation of the treatment to when the patients experienced relief of pain from the affected area was about 10 to 15 minutes after the first application.
structure (smiles),measurement,value
Nc1nc2c(ncn2COCCO)c(=O)[nH]1 [acyclovir],time from initiation of the symptoms to relief of pain from the affected area,3 to 5 days
same,time to healing,5 to 7 days
